Assay results taken from US20130157954A1, “METHODS FOR TREATMENT OR PROPHYLAXIS OF KIDNEY OR LIVER DYSFUNCTION” (NPS PHARMACEUTICALS, INC., priority 2010, published 2013).

Assay: Example 1: liver biomarkers (total bilirubin, ALT, AST, ALP) in short bowel syndrome patients, every four weeks for 24 weeks; also sorted by >5% change from baseline
Assay type: in vivo, Human
Design: AST (SGOT) Change from Baseline Median / ALT (SGPT) Median / TOTAL BILIRUBIN Median / TOTAL BILIRUBIN Change from Baseline Median / ALT (SGPT) Change from Baseline Median / AST (SGOT) Median: unit not given here
Conditions: for ALKALINE PHOSPHATASE change from baseline −5% <= and <=5%, percent of patients / ALT (SGPT) change from baseline <−5%, number of patients / ALT (SGPT) change from baseline <−5%, percent of patients / ALT (SGPT) change from baseline >5%, number of patients / ALT (SGPT) change from baseline >5%, percent of patients / ALT (SGPT) change from baseline −5% <= and <=5%, number of patients / ALT (SGPT) change from baseline −5% <= and <=5%, percent of patients / AST (SGOT) change from baseline <−5%, number of patients / AST (SGOT) change from baseline <−5%, percent of patients / AST (SGOT) change from baseline >5%, number of patients / AST (SGOT) change from baseline >5%, percent of patients / AST (SGOT) change from baseline −5% <= and <=5%, number of patients / AST (SGOT) change from baseline −5% <= and <=5%, percent of patients / TOTAL BILIRUBIN change from baseline <−5%, number of patients / TOTAL BILIRUBIN change from baseline <−5%, percent of patients / TOTAL BILIRUBIN change from baseline >5%, number of patients / TOTAL BILIRUBIN change from baseline >5%, percent of patients / TOTAL BILIRUBIN change from baseline −5% <= and <=5%, number of patients / TOTAL BILIRUBIN change from baseline −5% <= and <=5%, percent of patients / ALKALINE PHOSPHATASE change from baseline <−5%, number of patients / ALKALINE PHOSPHATASE change from baseline <−5%, percent of patients / ALKALINE PHOSPHATASE change from baseline >5%, number of patients / ALKALINE PHOSPHATASE change from baseline >5%, percent of patients / ALKALINE PHOSPHATASE change from baseline −5% <= and <=5%, number of patients: 0.05 mg/kg/day
Protocol: Human patients with short bowel syndrome were divided into three groups: a control group (16 total individuals) to receive placebo, an experimental group (35 total individuals) to receive teduglutide at 0.05 mg/kg/day throughout the study, and an experimental group (32 total individuals) to receive teduglutide at 0.1 mg/kg/day throughout the study. Patients were treated by subcutaneous injection of placebo or the appropriate dose of teduglutide. As individuals with short bowel syndrome are likely to experience associated liver and kidney disease, known biomarkers of liver and kidney function were monitored every four weeks, for 24 weeks. The liver biomarkers tested included total bilirubin, ALT and AST and ALP. The kidney biomarkers tested included urea nitrogen, creatinine and GFR. Before administration of placebo or teduglutide, diagnostic biomarker levels were tested to establish a baseline for each individual.
To visualize the effect of GLP-2 on the levels of the diagnostic biomarkers, the average change from baseline was calculated for the placebo and teduglutide treated groups for each visit after a baseline was established. The average change from baseline of each group is depicted in FIGS. 1-7. The numerical figures for each diagnostic biomarker at each time point are depicted in Table 1.
The efficacy of teduglutide in treating liver dysfunction was further tested by sorting the data into two groups: individuals with abnormal baseline values of liver diagnostic biomarkers; and individuals with normal baseline values of liver diagnostic biomarkers. The mean diagnostic biomarker change from baseline for these two groups is shown for ALT (FIGS. 5 and 6) and AST (FIGS. 7 and 8). […] These changes were significant when compared to baseline levels for the group, and when compared to placebo (see FIGS. 5 and 7).
The raw data for this sorting is reproduced in Table 2 below.

Compound: CC[C@H](C)[C@H](NC(=O)[C@H](Cc1ccccc1)NC(=O)[C@H](CC(=O)O)NC(=O)[C@H](CCCNC(=N)N)NC(=O)[C@H](C)NC(=O)[C@H](C)NC(=O)[C@H](CC(C)C)NC(=O)[C@H](CC(N)=O)NC(=O)[C@H](CC(=O)O)NC(=O)[C@H](CC(C)C)NC(=O)[C@@H](NC(=O)[C@@H](NC(=O)[C@H](CC(N)=O)NC(=O)[C@H](CCSC)NC(=O)[C@H](CCC(=O)O)NC(=O)[C@H](CC(=O)O)NC(=O)[C@H](CO)NC(=O)[C@H](Cc1ccccc1)NC(=O)[C@H](CO)NC(=O)CNC(=O)[C@H](CC(=O)O)NC(=O)CNC(=O)[C@@H](N)Cc1c[nH]cn1)[C@@H](C)O)[C@@H](C)CC)C(=O)N[C@@H](CC(N)=O)C(=O)N[C@@H](Cc1c[nH]c2ccccc12)C(=O)N[C@@H](CC(C)C)C(=O)N[C@H](C(=O)N[C@@H](CCC(N)=O)C(=O)N[C@H](C(=O)N[C@@H](CCCCN)C(=O)N[C@H](C(=O)N[C@H](C(=O)N[C@@H](CC(=O)O)C(=O)O)[C@@H](C)O)[C@@H](C)CC)[C@@H](C)O)[C@@H](C)CC [teduglutide]
- ALKALINE PHOSPHATASE change from baseline −5% <= and <=5%, percent of patients (week 12): (5.7%)
- ALT (SGPT) change from baseline <−5%, number of patients (week 12): 19
- ALT (SGPT) change from baseline <−5%, percent of patients (week 12): (54.3%)
- ALT (SGPT) change from baseline >5%, number of patients (week 12): 4
- ALT (SGPT) change from baseline >5%, percent of patients (week 12): (11.4%)
- ALT (SGPT) change from baseline −5% <= and <=5%, number of patients (week 12): 4
- ALT (SGPT) change from baseline −5% <= and <=5%, percent of patients (week 12): (11.4%)
- AST (SGOT) change from baseline <−5%, number of patients (week 12): 19
- AST (SGOT) change from baseline <−5%, percent of patients (week 12): (54.3%)
- AST (SGOT) change from baseline >5%, number of patients (week 12): 5
- AST (SGOT) change from baseline >5%, percent of patients (week 12): (14.3%)
- AST (SGOT) change from baseline −5% <= and <=5%, number of patients (week 12): 3
- AST (SGOT) change from baseline −5% <= and <=5%, percent of patients (week 12): (8.6%)
- TOTAL BILIRUBIN change from baseline <−5%, number of patients (week 12): 14
- TOTAL BILIRUBIN change from baseline <−5%, percent of patients (week 12): (40.0%)
- TOTAL BILIRUBIN change from baseline >5%, number of patients (week 12): 6
- TOTAL BILIRUBIN change from baseline >5%, percent of patients (week 12): (17.1%)
- TOTAL BILIRUBIN change from baseline −5% <= and <=5%, number of patients (week 12): 4
- TOTAL BILIRUBIN change from baseline −5% <= and <=5%, percent of patients (week 12): (11.4%)
- ALKALINE PHOSPHATASE change from baseline <−5%, number of patients (week 16): 20
- ALKALINE PHOSPHATASE change from baseline <−5%, percent of patients (week 16): (57.1%)
- ALKALINE PHOSPHATASE change from baseline >5%, number of patients (week 16): 6
- ALKALINE PHOSPHATASE change from baseline >5%, percent of patients (week 16): (17.1%)
- ALKALINE PHOSPHATASE change from baseline −5% <= and <=5%, number of patients (week 16): 2
- ALKALINE PHOSPHATASE change from baseline −5% <= and <=5%, percent of patients (week 16): (5.7%)
- ALT (SGPT) change from baseline <−5%, number of patients (week 16): 16
- ALT (SGPT) change from baseline <−5%, percent of patients (week 16): (45.7%)
- ALT (SGPT) change from baseline >5%, number of patients (week 16): 12
- ALT (SGPT) change from baseline >5%, percent of patients (week 16): (34.3%)
- ALT (SGPT) change from baseline −5% <= and <=5%, number of patients (week 16): 0
- ALT (SGPT) change from baseline −5% <= and <=5%, percent of patients (week 16): (0.0%)
- AST (SGOT) change from baseline <−5%, number of patients (week 16): 14
- AST (SGOT) change from baseline <−5%, percent of patients (week 16): (40.0%)
- AST (SGOT) change from baseline >5%, number of patients (week 16): 8
- AST (SGOT) change from baseline >5%, percent of patients (week 16): (22.9%)
- AST (SGOT) change from baseline −5% <= and <=5%, number of patients (week 16): 6
- AST (SGOT) change from baseline −5% <= and <=5%, percent of patients (week 16): (17.1%)
- TOTAL BILIRUBIN change from baseline <−5%, number of patients (week 16): 14
- TOTAL BILIRUBIN change from baseline <−5%, percent of patients (week 16): (40.0%)
- TOTAL BILIRUBIN change from baseline >5%, number of patients (week 16): 9
- TOTAL BILIRUBIN change from baseline >5%, percent of patients (week 16): (25.7%)
- TOTAL BILIRUBIN change from baseline −5% <= and <=5%, number of patients (week 16): 3
- TOTAL BILIRUBIN change from baseline −5% <= and <=5%, percent of patients (week 16): (8.6%)
- ALKALINE PHOSPHATASE change from baseline <−5%, number of patients (week 20): 22
- ALKALINE PHOSPHATASE change from baseline <−5%, percent of patients (week 20): (62.9%)
- ALKALINE PHOSPHATASE change from baseline >5%, number of patients (week 20): 4
- ALKALINE PHOSPHATASE change from baseline >5%, percent of patients (week 20): (11.4%)
- ALKALINE PHOSPHATASE change from baseline −5% <= and <=5%, number of patients (week 20): 1
- ALKALINE PHOSPHATASE change from baseline −5% <= and <=5%, percent of patients (week 20): (2.9%)
- ALT (SGPT) change from baseline <−5%, number of patients (week 20): 17
- ALT (SGPT) change from baseline <−5%, percent of patients (week 20): (48.6%)
- ALT (SGPT) change from baseline >5%, number of patients (week 20): 9
- ALT (SGPT) change from baseline >5%, percent of patients (week 20): (25.7%)
- ALT (SGPT) change from baseline −5% <= and <=5%, number of patients (week 20): 1
- ALT (SGPT) change from baseline −5% <= and <=5%, percent of patients (week 20): (2.9%)
- AST (SGOT) change from baseline <−5%, number of patients (week 20): 17
- AST (SGOT) change from baseline <−5%, percent of patients (week 20): (48.6%)
- AST (SGOT) change from baseline >5%, number of patients (week 20): 6
- AST (SGOT) change from baseline >5%, percent of patients (week 20): (17.1%)
- AST (SGOT) change from baseline −5% <= and <=5%, number of patients (week 20): 4
- AST (SGOT) change from baseline −5% <= and <=5%, percent of patients (week 20): (11.4%)
- TOTAL BILIRUBIN change from baseline <−5%, number of patients (week 20): 12
- TOTAL BILIRUBIN change from baseline <−5%, percent of patients (week 20): (34.3%)
- TOTAL BILIRUBIN change from baseline >5%, number of patients (week 20): 7
- TOTAL BILIRUBIN change from baseline >5%, percent of patients (week 20): (20.0%)
- TOTAL BILIRUBIN change from baseline −5% <= and <=5%, number of patients (week 20): 6
- TOTAL BILIRUBIN change from baseline −5% <= and <=5%, percent of patients (week 20): (17.1%)
- ALKALINE PHOSPHATASE change from baseline <−5%, number of patients (week 24): 21
- ALKALINE PHOSPHATASE change from baseline <−5%, percent of patients (week 24): (60.0%)
- ALKALINE PHOSPHATASE change from baseline >5%, number of patients (week 24): 4
- ALKALINE PHOSPHATASE change from baseline >5%, percent of patients (week 24): (11.4%)
- ALKALINE PHOSPHATASE change from baseline −5% <= and <=5%, number of patients (week 24): 0
- ALKALINE PHOSPHATASE change from baseline −5% <= and <=5%, percent of patients (week 24): (0.0%)
- ALT (SGPT) change from baseline <−5%, number of patients (week 24): 18
- ALT (SGPT) change from baseline <−5%, percent of patients (week 24): (51.4%)
- ALT (SGPT) change from baseline >5%, number of patients (week 24): 4
- ALT (SGPT) change from baseline >5%, percent of patients (week 24): (11.4%)
- ALT (SGPT) change from baseline −5% <= and <=5%, number of patients (week 24): 4
- ALT (SGPT) change from baseline −5% <= and <=5%, percent of patients (week 24): (11.4%)
- AST (SGOT) change from baseline <−5%, number of patients (week 24): 17
- AST (SGOT) change from baseline <−5%, percent of patients (week 24): (48.6%)
- AST (SGOT) change from baseline >5%, number of patients (week 24): 6
- AST (SGOT) change from baseline >5%, percent of patients (week 24): (17.1%)
- AST (SGOT) change from baseline −5% <= and <=5%, number of patients (week 24): 3
- AST (SGOT) change from baseline −5% <= and <=5%, percent of patients (week 24): (8.6%)
- TOTAL BILIRUBIN change from baseline <−5%, number of patients (week 24): 8
- TOTAL BILIRUBIN change from baseline <−5%, percent of patients (week 24): (22.9%)
- TOTAL BILIRUBIN change from baseline >5%, number of patients (week 24): 10
- TOTAL BILIRUBIN change from baseline >5%, percent of patients (week 24): (28.6%)
- TOTAL BILIRUBIN change from baseline −5% <= and <=5%, number of patients (week 24): 4
- TOTAL BILIRUBIN change from baseline −5% <= and <=5%, percent of patients (week 24): (11.4%)
- ALT (SGPT) Change from Baseline Median (0.10 mg/kg/day, DW4): −6.5
- ALT (SGPT) Median (0.10 mg/kg/day, DW4): 30.0
